Measurements: patent US7884076B2, “Multipeptide regimen for the treatment of autistic spectrum, behavioral, emotional and visceral inflammation/autoimmune disorders” (The Trustees of Columbia University In the City of New York, priority 2003, dated 2011)
Entries after “also recorded” stand apart in the source; their conditions may differ. No end group written: not given here.

Legend:
[1] = system: c-fos protein expression in brain regions; assay: i.c.v. secretin, immunocytochemical detection of Fos in rat brain; assay type: in vivo, Sprague-Dawley rats; conditions: i.c.v. lateral ventricle, secretin vs PBS, perfused 3 hours after injection, region named in the value
Text: The inventors obtained data in eight adult male Sprague-Dawley rats weighing 250-450 g. The rats were obtained from Hilltop Lab Animals, Inc. (Scottdale, Pa.). Under ketamine-xylazine anesthesia, using sterile techniques, a stainless steel guide cannula was stereotaxically inserted into the lateral ventricle of each rat. Each cannula was affixed in place with dental cement secured to the skull. To prevent clogging, a removable 27 gauge wire was inserted into the guide cannula. The placement of the cannula with reference to bregma was 1.4-mm lateral, 0.5-mm caudal, and a depth of 2.5 mm from the surface of the skull. The rats were allowed to recover for 4-5 days before the injections. During this time, both experimental and control rats were administered 0.01 ml/kg buprinorphine hydrochloride every 6 h to reduce pain. Injections were made in the lateral ventricle 5 mm from the surface of the skull, via a premeasured cannula attached by polyethylene tubing (PE20) to a 25 ILL Hamilton syringe containing either phosphate buffered saline (PBS) at pH 7.4 (n=4) or 10 ILg (n=1, pilot study) or 30 ILg (n=3) of secretin (Sigma, St. Louis, Mo.) dissolved in 5-10 ILL PBS. Secretin injections were performed between 11:00 A.M. and 1:00 P.M.
Three hours after the i.c.v. injection, rats were administered sodium pentobarbital and perfused transcardially with heparinized, physiological saline followed by a 4% solution of paraformaldehyde in sodium phosphate buffer, pH 7.4. Whole brains were removed and blocked. Identical procedures were followed in control (n=4) and experimental animals (n=4). Tissue blocks were postfixed for 2-3 h in individual glass vials containing 4% paraformaldehyde in 0.1 M phosphate buffer (PBS, pH 7.4) and cryoprotected overnight at 4° C. in a solution of 10% sucrose in 0.1 M PBS. Frozen sections were cut on a sliding microtome at 30 JLm in the transverse plane and every fourth section was processed immunocytochemically for c-fos protein. Tissues from control and experimental animals were processed simultaneously in the same solutions in order to control for potential variability in immunocytochemistry. All incubations were carried out in separate test wells on a Thomas rotator table. Tissues were collected in 0.1 M PBS (pH 7.4) in spot test wells and washed in Tris-buffered saline (TBS) between each step. Nonspecific binding sites were blocked by preincubating for 30 min in bovine serum albumin (BSA), diluted 1:30 in TBS. Thereafter, sections were incubated overnight in primary whole rabbit antiserum raised against Fos protein diluted 1:10,000 (Oncogene, Cambridge, Mass.). The antisera were diluted in TBS containing 0.1% BSA, to which 0.25% Triton X-100 was added to facilitate antibody penetration. […]

[2] = system: IL10-/- colitis, colon inflammation; assay: IL-10-/- mouse colitis (genetic IBD), hematoxylin/eosin gut histology; assay type: in vivo, C57B6 IL-10-/- mice; conditions: I.P. infusion by Alzet pump, vs saline
Text: An acquired IBD model was created by inducing Colitis in male Sprague-Dawley rats (n=10) with trinitrobenzene sulfonic acid (TNBS) enema. A genetic IBD model was also created using IL-10 mutant mice. IBD criteria was confirmed in both groups by analyzing numbers of lymphocytes and epithelial destruction, and concomitant cerebral metabolic activity patterns comparing regional induction of c-fos gene expression. Control rats (n=11) and control mice (n=5) were also maintained.
Both the acquired IBD (rat) and genetic IBD (mouse) groups were treated with a combined peptide therapy consisting of co-administration of secretin and oxytocin. The acquired IBD subjects were administered a combination of secretin and oxytocin (40 μg/100 μl i.v.×7-20 days two weeks after disease induction). The genetic IBD subjects were administered a combination of secretin and oxytocin (40 μg/100 μl i.v.×7-20 days at age 18 weeks).
Data were obtained in 21 adult male Sprague-Dawley rats weighing 250-450 g and in 14 C57B6 IL-10−/− mice. Rats were obtained from Hilltop Lab Animals, Inc. (Scottdale, Pa.) and housed at the New York State Psychiatric Institute Housing Facility. Mice were obtained from Jackson Laboratory (Bar Harbor, Me.) and housed at the Eye Institute Annex of Columbia University.
Sprague-Dawley rats (n=10) were anesthetized with ketamine and xylazine and administered a solution of trinitrobenzene sulfonic acid (TNBS). 0.5 ml of TNBS solution (100 μl TNBS 5% solution; 150 μl PBS; 250 μl 100% ethanol) […] was administered intrarectally (Dohi T, et al., '00). Control rats (n=11) were injected with phosphate buffered saline (PBS) solution alone. On days 0, 3 and 7, the TNBS enema was administered via a glass microsyringe equipped with a gastric intubation needle. The animals were treated at the following time intervals: […] after the TNBS treatment in the Sprague-Dawley rats and at 18 weeks of age in the IL-10−/− mice.
Animals were anesthetized with xylazine (7-10 mg/kg I.P.) and ketamine (60 mg/kg I.P.) prior to implantation of an Alzet pump (model #2002). […]

[3] = system: c-fos protein expression in brain regions; assay: i.c.v. secretin, immunocytochemical detection of Fos in rat brain; assay type: in vivo, Sprague-Dawley rats; conditions: secretin infusion into the fourth ventricle (Example 4)

Question: Which “Fos immunoreactivity (c-fos expression) attenuated in brain regions” value [1] does the source give for “secretin (HSDGTFTSELSRLRDSARLQRLLQGLV; not fully specified; ends and bridges not checked; UniProt P63298 33-59, looked up) [twenty-seven amino acid peptide and an enterogastrone; commercially available as SecreFlo]” here?
Answer: attenuated Fos labeling; also recorded: attenuated c-fos expression of the parietal cortex

Question: And the “Fos immunoreactivity (c-fos expression) induced in brain regions” value [1]?
Answer: c-fos induction in ependymal and subependymal nuclei lining the third ventricle; also recorded: most heavily concentrated along the medial bank of the prefrontal cortex, the orbitofrontal cortex, the anterior olfactory nucleus, and the piriform cortex; also recorded: Fos immunoreactivity in behavioral, endocrine, and autonomic areas; also recorded: activated the NTS and its projection fields in the reticular formation, diffuse projection systems and the mesolimbic network; also recorded: area postrema was also activated; also recorded: induced c-fos expression in the locus ceruleus (LC); also recorded: induced c-fos expression of ependymal (arrows) and subependymal cells lining the third ventricle (III); also recorded: induced c-fos expression of the piriform cortex

Question: And the “Fos immunoreactivity (c-fos expression) attenuated in brain regions” value ([1]; listed as Secretin)?
Answer: attenuated Fos immunoreactivity in the dorsal periaqueductal gray, the intralamanar thalamus, the medial parvicellular hypothalamus, which synthesizes corticotrophin releasing hormone, the motor cortex, and the somatosensory and association areas of the parietal cortex

Question: What about the “Fos immunoreactivity (c-fos expression) induced in brain regions” value ([1]; listed as Secretin) of the same substance?
Answer: altered numbers of Fos immunoreactive nuclei, mainly in visceral and limbic areas of the brain; also recorded: induced c-fos protein expression in the dorsal vagal complex, including the general afferent division of NTS and the dorsal motor nucleus; also recorded: Fos IR was concentrated throughout the area postrema and its subpostremal region of transition with the NTS and the commissural, medial parvicellular and periventricular subnuclei; also recorded: activated c-fos expression in cells in the intermediate reticular region of the lateral tegmental field; also recorded: induced c-fos expression in the locus ceruleus (FIG. 3), ventral periaqueductal gray, and the paraventricular thalamic nucleus; also recorded: the predominant labeling mapped to the paraventricular hypothalamic nucleus, mainly its periventricular region and magnocellular subdivision; also recorded: induced c-fos in the medial and central amygdala and the lateral septal complex

Question: What about the “colon inflammation / inflammatory infiltrates, hematoxylin and eosin histology” value [2] of the same substance?
Answer: partial resolution of colon inflammation

Question: What about the “colon inflammation / inflammatory infiltrates, hematoxylin and eosin histology” value ([2]; listed as S) of the same substance?
Answer: partial resolution of inflammation

Question: And the “colon inflammation / inflammatory infiltrates, hematoxylin and eosin histology” value ([2]; listed as Secretin)?
Answer: dramatic increase in inflammatory infiltrate

Question: What about the brain regions activated [3] of the same substance?
Answer: activated comparable brain regions; viscerothalamic and HPA stress axes, amygdala, and ependyma
